Test results taken from PubChem BioAssay (NCI).
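GI50 marks 50% less growth. TGI denotes the concentration required for complete inhibition of growth.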

Key:
Experiment in all cases: DTP human tumour cell line panel, 384-well format
BT-549 breast = test system: BT-549 breast
HS 578T breast = test system: HS 578T breast
MDA-MB-468 breast = test system: MDA-MB-468 breast
NCI-H522 lung = test system: NCI-H522 lung
RPMI-8226 leukemia = test system: RPMI-8226 leukemia
SW-620 colon = test system: SW-620 colon
K-562 leukemia = test system: K-562 leukemia
TK-10 renal = test system: TK-10 renal
RXF 393 renal = test system: RXF 393 renal
HOP-62 NSCLC = test system: HOP-62 NSCLC
MALME-3M melanoma = test system: MALME-3M melanoma
NCI-H23 lung = test system: NCI-H23 lung
MDA-MB-435 melanoma = test system: MDA-MB-435 melanoma
SK-MEL-28 melanoma = test system: SK-MEL-28 melanoma
OVCAR-5 ovarian = test system: OVCAR-5 ovarian
UACC-257 melanoma = test system: UACC-257 melanoma
KM12 colon = test system: KM12 colon
T-47D breast = test system: T-47D breast
MOLT-4 leukemia = test system: MOLT-4 leukemia
SF-268 CNS = test system: SF-268 CNS
HOP-92 NSCLC = test system: HOP-92 NSCLC
A498 renal = test system: A498 renal
SR leukemia = test system: SR leukemia
SN12C renal = test system: SN12C renal
786-0 renal = test system: 786-0 renal
EKVX NSCLC = test system: EKVX NSCLC
MDA-MB-231 breast = test system: MDA-MB-231 breast
SK-OV-3 ovarian = test system: SK-OV-3 ovarian
HT29 colon = test system: HT29 colon
CAKI-1 renal = test system: CAKI-1 renal
A549 NSCLC = test system: A549 NSCLC
U251 glioblastoma = test system: U251 glioblastoma
OVCAR-3 ovarian = test system: OVCAR-3 ovarian
COLO 205 colon = test system: COLO 205 colon
HCT-15 colon = test system: HCT-15 colon
UO-31 renal = test system: UO-31 renal
SF-295 CNS = test system: SF-295 CNS
NCI-H460 NSCLC = test system: NCI-H460 NSCLC
MCF7 breast = test system: MCF7 breast
OVCAR-8 ovarian = test system: OVCAR-8 ovarian
M14 melanoma = test system: M14 melanoma
NCI/ADR-RES ovarian = test system: NCI/ADR-RES ovarian
PC-3 prostate = test system: PC-3 prostate
LOX IMVI melanoma = test system: LOX IMVI melanoma
ACHN renal = test system: ACHN renal
SNB-75 CNS = test system: SNB-75 CNS
OVCAR-4 ovarian = test system: OVCAR-4 ovarian
SF-539 CNS = test system: SF-539 CNS
HCT-116 colon = test system: HCT-116 colon
SK-MEL-5 melanoma = test system: SK-MEL-5 melanoma
NCI-H226 lung = test system: NCI-H226 lung
SNB-19 CNS = test system: SNB-19 CNS
DU-145 prostate = test system: DU-145 prostate
NCI-H322M lung = test system: NCI-H322M lung
IGROV1 ovarian = test system: IGROV1 ovarian
CCRF-CEM leukemia = test system: CCRF-CEM leukemia

C[C@H]1CNC(=O)c2cnn3ccc(nc23)N[C@H](C)c2cc(F)ccc2O1
GI50 (BT-549 breast): 1.07 µM | TGI (BT-549 breast): 2.3 µM | GI50 (HS 578T breast): 0.249 µM | TGI (HS 578T breast): 1.25 µM | GI50 (MDA-MB-468 breast): 0.629 µM | TGI (MDA-MB-468 breast): 2.01 µM | GI50 (NCI-H522 lung): 0.463 µM | TGI (NCI-H522 lung): 2.28 µM | GI50 (RPMI-8226 leukemia): 1.61 µM | TGI (RPMI-8226 leukemia): 3.76 µM | GI50 (SW-620 colon): 0.444 µM | TGI (SW-620 colon): 2.85 µM | GI50 (K-562 leukemia): 0.451 µM | TGI (K-562 leukemia): 1.85 µM | GI50 (TK-10 renal): 0.635 µM | TGI (TK-10 renal): 2.1 µM | GI50 (RXF 393 renal): 0.187 µM | TGI (RXF 393 renal): 0.498 µM | GI50 (HOP-62 NSCLC): 1.12 µM | TGI (HOP-62 NSCLC): 2.85 µM | GI50 (MALME-3M melanoma): 4.21 µM | TGI (MALME-3M melanoma): 30 µM | GI50 (NCI-H23 lung): 0.521 µM | TGI (NCI-H23 lung): 6.75 µM | GI50 (MDA-MB-435 melanoma): 16.1 µM | TGI (MDA-MB-435 melanoma): 49.8 µM | GI50 (SK-MEL-28 melanoma): 17.1 µM | TGI (SK-MEL-28 melanoma): 77.1 µM | GI50 (OVCAR-5 ovarian): 0.527 µM | TGI (OVCAR-5 ovarian): 2.91 µM | GI50 (UACC-257 melanoma): 12.2 µM | TGI (UACC-257 melanoma): 37.4 µM | TGI (KM12 colon): 10.1 µM | GI50 (T-47D breast): 1.48 µM | TGI (T-47D breast): 15.8 µM | GI50 (MOLT-4 leukemia): 0.18 µM | TGI (MOLT-4 leukemia): 0.342 µM | GI50 (SF-268 CNS): 0.374 µM | TGI (SF-268 CNS): 1.55 µM | GI50 (HOP-92 NSCLC): 0.516 µM | TGI (HOP-92 NSCLC): 1.98 µM | GI50 (A498 renal): 0.779 µM | TGI (A498 renal): 2.1 µM | GI50 (SR leukemia): 0.0372 µM | TGI (SR leukemia): 0.116 µM | GI50 (SN12C renal): 0.664 µM | TGI (SN12C renal): 2.26 µM | GI50 ([…]-0 renal): 1.29 µM | TGI (786-0 renal): 2.66 µM | GI50 (EKVX NSCLC): 0.469 µM | TGI (EKVX NSCLC): 3.82 µM | GI50 (MDA-MB-231 breast): 0.433 µM | TGI (MDA-MB-231 breast): 2.46 µM | GI50 (SK-OV-3 ovarian): 0.522 µM | TGI (SK-OV-3 ovarian): 2.93 µM | GI50 (HT29 colon): 0.776 µM | TGI (HT29 colon): 13.4 µM | GI50 (CAKI-1 renal): 0.829 µM | TGI (CAKI-1 renal): 2.09 µM | GI50 (A549 NSCLC): 0.439 µM | TGI (A549 NSCLC): 10.8 µM | GI50 (U251 glioblastoma): 2.29 µM | TGI (U251 glioblastoma): 11.4 µM | GI50 (OVCAR-3 ovarian): 0.414 µM | TGI (OVCAR-3 ovarian): 2.03 µM | GI50 (COLO 205 colon): 1.43 µM | TGI (COLO 205 colon): 2.93 µM | GI50 (HCT-15 colon): 1.36 µM | TGI (HCT-15 colon): 4.6 µM | GI50 (UO-31 renal): 1.36 µM | TGI (UO-31 renal): 2.8 µM | GI50 (SF-295 CNS): 0.243 µM | TGI (SF-295 CNS): 1.77 µM | GI50 (NCI-H460 NSCLC): 0.391 µM | TGI (NCI-H460 NSCLC): 1.69 µM | GI50 (MCF7 breast): 0.429 µM | TGI (MCF7 breast): 15.2 µM | GI50 (OVCAR-8 ovarian): 1.65 µM | TGI (OVCAR-8 ovarian): 4.08 µM | GI50 (M14 melanoma): 31.7 µM | TGI (M14 melanoma): > 100 µM | GI50 (NCI/ADR-RES ovarian): 10.6 µM | TGI (NCI/ADR-RES ovarian): 22.6 µM | GI50 (PC-3 prostate): 0.668 µM | TGI (PC-3 prostate): 4.01 µM | GI50 (LOX IMVI melanoma): 0.428 µM | TGI (LOX IMVI melanoma): 1.45 µM | GI50 (ACHN renal): 0.511 µM | TGI (ACHN renal): 2.65 µM | GI50 (SNB-75 CNS): 0.209 µM | TGI (SNB-75 CNS): 0.816 µM | GI50 (OVCAR-4 ovarian): 0.687 µM | TGI (OVCAR-4 ovarian): 7.35 µM | GI50 (SF-539 CNS): 1.02 µM | TGI (SF-539 CNS): 2.23 µM | GI50 (HCT-116 colon): 0.477 µM | TGI (HCT-116 colon): 11.1 µM | GI50 (SK-MEL-5 melanoma): 6.62 µM | TGI (SK-MEL-5 melanoma): 20.5 µM | GI50 (NCI-H226 lung): 0.525 µM | TGI (NCI-H226 lung): 2 µM | GI50 (SNB-19 CNS): 1.83 µM | TGI (SNB-19 CNS): 7.86 µM | GI50 (DU-145 prostate): 1.43 µM | TGI (DU-145 prostate): 5.04 µM | GI50 (NCI-H322M lung): 1.14 µM | TGI (NCI-H322M lung): 6.01 µM | GI50 (IGROV1 ovarian): 0.229 µM | TGI (IGROV1 ovarian): 0.911 µM | GI50 (CCRF-CEM leukemia): 0.189 µM | TGI (CCRF-CEM leukemia): 0.345 µM
